Key:
[1] = Toxicity (cell number) in RK13 cells; settings: rabbit
Myxomavirus T1-ANCHOR = test: Antiviral activity, RK13 cells with Myxomavirus T1-ANCHOR; format: cell-based; settings: for Selectivity index: RK13/MyxV T1, CC50/CI50; for IC50: RK-13, 144 h, RK13/MyxV T1, MOI 0.05, fixation at 6 days, read-out: CI50 (the source's name)
hCMV-ANCHOR = test: Antiviral activity, MRC5 cells with hCMV-ANCHOR; format: cell-based; settings: for Selectivity index: CC50/CI50; for IC50: Human betaherpesvirus 5, 144 h, MOI 1, fixation at 6 days, read-out: CI50 (the source's name)
VACV-ANCHOR = test: microbe, parasite or virus in culture; format: cell-based, Vaccinia virus; settings: for Selectivity index: HeLa/VacV, CC50/CI50; for IC50: Orthopoxvirus vaccinia, HeLa, 48 h, read-out: CI50
[2] = Toxicity (cell number) in Hep2 cells; settings: human
[3] = Toxicity (cell number) in MRC5 cells; settings: human
[4] = Toxicity (cell number) in HeLa cells; settings: human
[5] = system: Shiga toxin (Stx-1 and/or Stx-2); format: cell-based, E. coli
RSV = test: Antiviral activity, Hep2 cells with RSV; format: cell-based; settings: for Selectivity index: CC50/CI50; for IC50: human respiratory syncytial virus, HEp-2, MOI 0.2, fixation at 72 hours, read-out: CI50 (the source's name)

| Structure (SMILES) | CC50 at 72 h [1] | Selectivity index (Myxomavirus T1-ANCHOR) | IC50 (Myxomavirus T1-ANCHOR) | Selectivity index (hCMV-ANCHOR) | IC50 (hCMV-ANCHOR) | Selectivity index (VACV-ANCHOR) | IC50 (VACV-ANCHOR) | CC50 at 72 h [2] | CC50 at 72 h [3] | CC50 at 72 h [4] | IC50 [5] | Selectivity index (RSV) | IC50 (RSV) |
| --- | --- | --- | --- | --- | --- | --- | --- | --- | --- | --- | --- | --- | --- |
| Cc1nc(-c2ccc(C3N(C)c4ccc(F)cc4C(=O)N3c3ccccc3N)s2)cs1 (stereo not shown) [Compound 1] | 7460 nM | 5,181 | 1.44 nM | 21,500 | < 1 nM | 47,619 | 1.05 nM | > 50000 nM | 21500 nM | > 50000 nM | 14.2 nM |  |  |
| Cc1nc(-c2ccc(C3N(C)c4ccc(F)cc4C(=O)N3c3ccccc3O)s2)cs1 (stereo not shown) [Compound 2] |  |  | 14.2 nM | 21,000 | < 1 nM | 8,947 | 3.61 nM | 37600 nM | 21000 nM | 32300 nM | 20 nM | 1,880 | 20 nM |
| Cc1nc(-c2ccc(C3N(C)c4ccc(F)cc4C(=O)N3c3cccc(O)c3)s2)cs1 (stereo not shown) [Compound 3] |  |  |  |  |  |  |  |  |  |  | 55 nM |  |  |
| Cc1nc(-c2ccc(C3N(C)c4ccccc4C(=O)N3c3ccccc3N)s2)cs1 (stereo not shown) [Compound 4] |  |  |  |  |  |  |  |  |  |  | 78.6 nM |  |  |
| Cc1nc(-c2ccc(C3N(C)c4ccc(F)cc4C(=O)N3c3ccccc3S(N)(=O)=O)s2)cs1 (stereo not shown) [Compound 5] |  |  |  |  |  |  |  |  |  |  | 35 nM |  |  |
| Cc1nc(-c2ccc(C3N(C)c4ccc(F)cc4C(=O)N3c3ccc(O)cc3)s2)cs1 (stereo not shown) [Compound 6] | 12900 nM | 2 | 5800 nM | 59 | 281 nM | 32 | 628 nM | 25600 nM | 16700 nM | 20400 nM | 483 nM | 12 | 2200 nM |
| Cc1nc(-c2ccc(C3N(C)c4ccc(F)cc4C(=O)N3c3cccc(O)c3O)s2)cs1 (stereo not shown) [Compound 7] |  |  |  |  |  |  |  |  |  |  | 41 nM |  |  |
| Cc1nc(-c2ccc(C3N(C)c4ccc(F)cc4C(=O)N3c3ccccc3)s2)cs1 (stereo not shown) [Retro-2.1] | 3350 nM | 45 | 74.5 nM | 4,310 | 11.6 nM | 1,323 | 37.8 nM | > 50000 nM | > 50000 nM | > 50000 nM | 100 nM | 309 | 162 nM |

Source: patent US12024508B2 (priority 2018, dated 2024)
